Patent US8168638B2, “Pyrazinecarboxamide derivatives and plant disease controlling agents containing the same” (Nihon Nohyaku Co., Ltd., priority 2005, dated 2012)

System: Blumeria graminis f. sp. hordei
Assay: Test on the controlling effect against powdery mildew of barley plant
Format: in vivo
Conditions: barley plant (Kantoh No. 6), foliar application, active-ingredient concentration 200 ppm, application rate 50 mL, 7 days after inoculation
Text: Equation (1): Protective value (%)=A/B×100 (1) where: • A; [(Ratio of the afflicted spotted leaf surface area in non-treated section to the total leaf surface area)−(Ratio of the afflicted spotted leaf surface area in treated section to the total leaf surface area)] • B; (Ratio of the afflicted spotted leaf surface area in non-treated section to the total leaf surface area) Criteria of Judgment: 0: Less than […] in protective value 1: 10 to 19% in protective value 2: 20 to 29% in protective value 3: 30 to 39% in protective value 4: 40 to 49% in protective value 5: 50 to 59% in protective value 6: 60 to 69% in protective value 7: 70 to 79% in protective value 8: 80 to 89% in protective value 9: 90 to 99% in protective value 10: 100% in protective value A one-leaf aged barley plant (the cultivar: Kantoh No. 6) raised as a seedling in a pot of 6 cm in diameter was subjected to foliar application with a diluted emulsion of the emulsifiable concentrate of the compound of the present invention prepared in accordance with Agrochemical Formulation Example 1, which diluted emulsion was produced by diluting the concentrate with water to the specifically determined volume. […] Seven days after the inoculation, the controlling effect was assessed according the criteria of judgment as set forth in Test Example 1.

With `O=C(Nc1ccccc1-c1ccc(Cl)cc1)c1cccnc1Cl` [Control Compound C, 2-Chloro-N-(4′-chlorobiphenyl-2-yl)-nicotinamide] the “controlling effect assessed according to the criteria of judgment” value was 4 (40 to 49% in protective value).
